In patent publication US11697772B2, “Hydrotropic composition and its uses” (KEMIRA OYJ, priority 2017, dated 2023):
Where “and” joins values, the source holds several entries; their conditions need not be identical. Equal values may be shown once. Read-outs that look alike come from different tables or passages of the source.

Experiments:
[1] = Critical micelle concentration by optical pendant drop method (surface tension); type: physicochemical; conditions: in water, superscript L logarithmic fitting, S sigmoidal fitting
Text: The surface-active molecules (surfactants) dissolve in aqueous solutions as monomers to certain concentration threshold, after which they start to build up into differing aggregates. This concentration threshold is called critical micellar concentration (CMC). However, for many surfactants the CMC is moreover a concentration range, not a specific concentration point, and the width of the range depends greatly on the structure of the compound. […] The optical pendant drop method using a contact angle meter (CAM 200, KSV Instruments, Espoo, Finland) was used for determining the CMCs. In short, a series of differing IL concentrations in water solution was investigated. A pendant-drop of a constant height was formed and the surface tension of the drop was determined based on the drop curvature by using a fitting method according to Young-Laplace equation. The surface tension was determined based on the curvature and plotted as a function of the IL concentration. The surface tension of the drop decreases as a function of increasing surfactant concentration because the singly dispersed IL molecules diffuse and orientate at the air-water interface and therefore reduce the surface tension. When the concentration reaches the CMC, the singly dispersed molecules form aggregates and no additional molecules diffuse to the surface of the drop. Therefore no change in surface tension is observed. The CMCs were determined based on the intersection point of two trend lines fitted based on the data. The surface tension was either plotted as a function of IL concentration or logarithm of the concentration and either sigmoidal or logarithmic fit, respectively, was used. The choice of method was dependent on which method provided the best fit.

[2] = Differential scanning calorimetry of IL/DPPC liposome mixtures (main phase transition); type: physicochemical; conditions: for Loss of transition (concentration range within which the phase transition was no longer detected): DPPC liposomes 0.4 mM lipid, DSC heating scans
Protocol: The median effective concentrations (EC50) were determined for each IL. Since the toxic effect was thought to be caused by permeation of these surface-active molecules into the cell wall of the bacteria, related interactions of ILs with biomimetic liposomes were investigated utilizing differential scanning calorimetry (DSC). In DSC experiments, dipalmitoyl phosphatidylcholine (DPPC) liposomes were used as biomimicking membranes and the change in the main phase transition temperature (Tm) of the DPPC bilayer was followed, as a function of the IL concentrations. Such measurements could potentially offer more information on how the aforementioned ILs interact with the lipid bilayers. Lastly, the critical micelle concentrations (CMC) were defined for the ILs. Based on the CMCs, it can be defined if the ILs are dissolved as singly dispersed molecules or form a dispersion of spherical micelles, or other self-assembled structures (aggregates). Therefore, it can be determined if the interactions with the bacteria or liposomes take place between IL aggregates or singly dispersed IL molecules.
The DSC experiments were performed in order to find out the IL concentrations that induce the drift in the DPPC bilayer phase transition temperature. FIG. 3 illustrates the representative endotherms, which were recorded during the second heating scans. Since the heating and the cooling scans were performed three times, the second heating endotherm was selected as the representative one. […] If the baseline variations observed during the first heating scans were not observed on the following two scans and with other concentrations of the same ILs, they were regarded as artefacts. […] Cooling scans (not shown) were recorded in order to follow the stability of the system, however, no further analysis of the cooling scans was performed. Such heating and cooling scans are standard in DSC experiments.
The DSC results are discussed in more detail in the following text for each IL carboxylate group. Instead of referring to the peak areas, which define the energy taken by the transition (cal/° C./mol), corresponding peak heights are referred to in the text, since the relative changes in the peak heights are more easily observed by visual inspection.
A stock solution of DPPC was prepared by dissolving DPPC in chloroform. Required amount of the stock solution was transferred into a glass test tube and the chloroform was evaporated under airflow in order to form a thin film of DPPC on the walls of the tube. The air-dried lipid film was held under vacuum desiccator at least for 2 h to remove the residual solvent. The lipid was dispersed into water to obtain a 4.0 mM liposome stock. The dispersion was incubated in an ultrasonication water bath for 30 min at 60° C. facilitating the formation of multilamellar liposomes.
DSC was utilized in observing the changes induced by the ILs in the organization of the lipid bilayers. Here DPPC was used because the Tm of the bilayer is well recognized—approximately 41.3° C. […] There are two additional transitions observed for DPPC aqueous solutions; the subtransition at 21° C. and the pretransition at 36° C.

Vibrio fischeri bacteria = assay: Vibrio fischeri toxicity assay (Microtox, decay of bioluminescence); type: cell-based
Protocol: The toxicities were determined by exposing Vibrio fischeri marine bacteria to aqueous solutions of ILs in differing concentrations. These bacteria have successfully been used for IL toxicity assessments in a myriad of studies. A recent comparison was performed between V. fischeri and three other standardized toxicity assays utilizing aquatic organisms, namely Daphnia magna (a fresh water crustacean), Selenastrum capricomutum (a freshwater algae) and Phaeodactylum tricomutum (a seawater algae).
The toxicity measurements were performed from an ecotoxicological point of view, since ILs are potentially hazardous for the environment and particularly for organisms in aquatic environments. Therefore, V. fischeri marine bacteria were utilized in these measurements. EC50 values were determined for seven water-soluble surface-active ILs. The ILs in this study included Ch-, GND-, TMG-based ILs with straight and branched (iso and neo forms) fatty acid chains, namely isostearates, decanotes and neodecanoates. As a reference, the toxicities of the sodium salts of these carboxylates were measured in order to obtain information on the effect of the cation on the toxicities of the ILs.
The toxicities of the ILs were defined by measuring their EC50 values using V. fischeri bacteria and Microtox luminometer/thermostate apparatus (Modern Water, USA). The response measured in this assay is the decay of bioluminescence produced by the bacteria. In short, the bioluminescence was measured before the exposure on the potentially toxic compound to determine the baseline luminescence. Consequently, the bacteria were exposed on minimum four differing toxicant concentrations in 2% (w/v) NaCl solution and the decay in the luminescence was recorded. Based on the concentration-dependent decay the EC50 value was defined. The toxicities were defined at set time intervals of 5 and 15 minutes. Two independent measurements were performed for each IL as duplicates.

[3] = DPPC liposomes, earlier DSC investigation; cited from earlier work
[4] = Vibrio fischeri, 5 min incubation, 2% (w/v) NaCl solution, read-out: EC50 5min
[5] = Vibrio fischeri, 15 min incubation, 2% (w/v) NaCl solution, read-out: EC50 15min
[6] = Aliivibrio fischeri, 5 min, Vibrio fischeri, 5 min incubation, 2% (w/v) NaCl solution, read-out: EC50 5min
[7] = Aliivibrio fischeri, 0.25 h, Vibrio fischeri, 15 min incubation, 2% (w/v) NaCl solution, read-out: EC50 15min

| Compound | CMC (critical micelle concentration) [1] | Loss of transition (concentration range within which the phase transition was no longer detected) [2] [mM] | EC50 (Vibrio fischeri bacteria; [4]) [µM] | EC50 (Vibrio fischeri bacteria; [5]) [µM] | other results |
| --- | --- | --- | --- | --- | --- |
| 1,1,3,3-Tetramethylguanidinium isostearate [TMG Isostearate] | 0.30 ± 0.04^S mM | 0.5 to 1.0 | 94 ± 1 | 62 ± 5 |  |
| 1,1,3,3-tetramethylguanidinium neodecanoate [TMG Neodecanoate] | 261 ± 11^L mM |  | 700 ± 70 | 650 ± 70 |  |
| CCCCCCCCC(=O)[O-].C[N+](C)(C)CCO [Ch nonanoate] |  |  |  |  | highest concentration at which a peak for the Tm was still observed [3]: 50 mM |
| CC(C)CCCCCCCCCCCCCCC(=O)[O-].[Na+] [Na Isostearate, sodium isostearate, reference compound] | 0.72 ± 0.06^L mM | 0.001 to 0.01 |  |  | EC50 (Vibrio fischeri bacteria; [6]): 110 ± 10 µM; EC50 (Vibrio fischeri bacteria; [7]): 81 ± 4 µM |
| CC(C)(C)CCCCCC(=O)[O-].[Na+] [Na Neodecanoate, sodium neodecanoate, reference compound] | 422 ± 38^L mM | 40 to 60 |  |  | EC50 (Vibrio fischeri bacteria; Aliivibrio fischeri, 5 min, read-out: EC50 5min): 500 ± 20 µM; EC50 (Vibrio fischeri bacteria; Aliivibrio fischeri, 0.25 h, read-out: EC50 15min): 473 ± 6 µM |
| CCCCCCCCCC(=O)[O-].[Na+] [Na decanoate, sodium decanoate, reference compound] | 22±3 mM and 22 ± 3^L mM |  |  |  | Tm of DPPC bilayer ([2]; 50 mM IL, 0.4 mM DPPC): above 35 °C; EC50 (Vibrio fischeri bacteria; [6]): 130 ± 20 µM; EC50 (Vibrio fischeri bacteria; [7]): 130 ± 20 µM |
| Choline isostearate [Ch Isostearate] | 0.50 ± 0.06^L mM | 0.5 to 1.0 | 130 ± 20 | 74 ± 5 | CMC (critical micelle concentration) ([1]; listed as Ch isostearate): ~0.5 mM |
| Guanidinium isostearate [GND Isostearate] | 0.31 ± 0.08^S mM | 0.5 to 1.0 | 98 ± 2 | 66 ± 5 |  |
| choline decanoate [Ch Decanoate] |  | 2.0 to 5.0 | 100 ± 20 | 100 ± 20 | concentrations at which the ILs affected the liposomes ([2]; DPPC liposomes 0.4 mM, DSC): 0.5 to 5 mM |
| choline neodecanoate [Ch Neodecanoate] | 319 ± 13^L mM |  | 560 ± 60 | 520 ± 80 | highest concentration at which the transition peak was still observed ([2]; 0.4 mM DPPC, no higher concentrations measured): 60 mM |
| guanidinium neodecanoate [GND Neodecanoate] | 118 ± 2^L mM | 15.0 to 25.0 | 730 ± 90 | 690 ± 70 |  |
